# From patent US20240366624A1, “METHODS AND COMPOSITIONS FOR TREATING THROMBOTIC DISEASE” (Washington University, priority 2023, published 2024)
# Where two headings read alike, the source gives them in different places.
# Columns and labels:
# ERO1α [1] = molecular target: T1, ERO1α (Homo sapiens, UniProt Q96HE7); test: Bio-layer interferometry, B12-5 on biotinylated ERO1α biosensor; settings: read-out: KD, binding to ERO1α
# T1 sequence (Q96HE7 24-468): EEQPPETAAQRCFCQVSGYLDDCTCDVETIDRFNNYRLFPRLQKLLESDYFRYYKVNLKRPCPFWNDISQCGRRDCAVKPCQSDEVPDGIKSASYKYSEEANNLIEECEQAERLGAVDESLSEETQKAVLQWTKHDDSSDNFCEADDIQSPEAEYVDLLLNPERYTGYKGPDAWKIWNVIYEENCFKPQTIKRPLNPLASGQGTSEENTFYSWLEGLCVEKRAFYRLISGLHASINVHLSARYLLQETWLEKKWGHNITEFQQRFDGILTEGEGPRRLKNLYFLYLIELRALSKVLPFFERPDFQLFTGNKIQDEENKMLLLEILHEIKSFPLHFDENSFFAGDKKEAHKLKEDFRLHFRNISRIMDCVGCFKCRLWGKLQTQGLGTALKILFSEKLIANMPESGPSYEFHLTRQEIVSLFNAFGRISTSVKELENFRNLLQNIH
# Description: FIG. 18(A-R) is an exemplary embodiment of novel small-molecule inhibitors recapitulating the defect in Ero1α (endoplasmic reticulum oxidoreductase 1a)-null platelets in accordance with the present disclosure. FIG. 18A: The structure of B12 and its inhibitory effect on ERO1α activity. FIG. 18(B-E): The inhibitory effect of B12 on P-selectin exposure and αIIbβ3 integrin activation in (FIG. 18B and FIG. 18C) mouse and (FIG. 18D and FIG. 18E) human platelets. FIG. 18F: The structure of B12-5 and its inhibitory effect on ERO1α activity. FIG. 18G: A docking model of B12-5-ERO1α (3AHQ) and flavin adenine dinucleotide (FAD)-ERO1α complex. There are pi-sulfur interactions of the phenothiazine head group (B112-5) or a tricyclic ring (FAD) with Met389 and Cys397. Also, there are H bond interactions between the tail/alkyl group and His255, Asn259, and Arg287. […] After incubation with a different concentration of B12-5, the specific interaction between B12-5 and ERO1α was measured by subtracting the nonspecific binding. The KD value was calculated from the Kon and Koff values. […] P values determined by ANOVA and Dunnett test (FIG. 18(B-E), FIG. 18(1-L), and FIG. 18(O-R) [for B12-5]) or Student t test (FIG. 18M, FIG. 18N, and FIG. 18(O-R) [for BAPTA (1,2-bis(o-aminophenoxy)ethane-N,N,N′,N′-tetraacetic acid)]). […]
# human platelets = test: Ca2+ mobilization (FLIPR), human platelets; format: cell-based; settings: thrombin or A23187
# Experimental: Ca^2+ mobilization was measured as described previously. WT control and Ero1α-null platelets (1×10^8/mL) were suspended in HEPES-Tyrode buffer, pH 7.4. Cells were incubated with a Ca^2+ dye (FLIPR Ca^2+5 assay kit; Molecular Devices) for 30 minutes at 37° C. in the dark, followed by stimulation with thrombin (0.1 U/mL), A23187 (2 μM) or thapsigargin (10-20 μM). After measuring Ca^2+ release, 1 mM CaCl2) was immediately added to assess Ca^2+ influx. In other experiments, Ca^2+ dye-labeled human and WT mouse platelets were incubated with a vehicle or an inhibitor for 10 minutes at 37° C. Cytosolic Ca^2+ levels were measured using a FlexStation3 microplate reader with an excitation wavelength of 485 nm and an emission wavelength of 525 nm. Ca^2+ mobilization was quantified by the area under the curve and expressed as a relative fluorescence unit.
# ERO1α [2] = molecular target: T1, ERO1α; test: ERO1α activity assay; format: biochemical
# Description: FIG. 17(A-F) is an exemplary embodiment of identification of novel ERO1α inhibitors by high throughput screening in accordance with the present disclosure. FIG. 17A: A scheme of an ERO1α activity assay. FIG. 17B: Screening of chemical libraries in the ERO1α activity assay. FIG. 17C: The inhibitory effect of selected compounds on ERO1α activity. FIG. 17D: The inhibitory effect of selected compounds on PDI activity. FIG. 17E: The inhibitory effect of selected compounds on H2O2 activity. FIG. 17F: The inhibitory effect of selected compounds on thiol-reacting activity. The data represent the mean±SD (n=3). *P<0.05, **P<0.01, ***P<0.001, and ****P<0.0001 vs. vehicle control, Student's t-test.
# To identify a novel ERO1α inhibitor, 5800 compounds were screened using an ERO1α activity assay (FIG. 17A and FIG. 17B). […] The selected compounds were further tested in assays measuring PDI, antioxidant, and thiol-reacting activities (FIG. 17D through FIG. 17F). […] B12 inhibited P-selectin exposure and αIIbβ3 activation in agonist-activated mouse and human platelets in a concentration-dependent manner (FIG. 18B through FIG. 18E).
smiles,measurement,setting,value
O=C(CSc1nc(O)cc(O)n1)N1c2ccccc2Sc2ccccc21 [B12-5],Kd,ERO1α [1],12.9 ± 3.8 µM
same,Ca2+ release and influx,human platelets,dose dependently inhibited
same,IC50,"ERO1α [2]; read-out: IC50, ERO1α activity",7.9 µM
same,IC50,"ERO1α [2]; read-out: IC50, ERO1α inhibitor",7.9 µM
